Experimental data taken from ChEMBL document CHEMBL1131993, “Binding affinities of 3-(3-phenylisoxazol-5-yl)methylidene-1-azabicycles to acetylcholine receptors” (Bioorg Med Chem Lett, 1999).

Key:
[1] = target: T1, Muscarinic acetylcholine receptor M1 (Homo sapiens) (UniProt P11229); assay: Ability to displace [3H]N-methylscopolamine binding to M1 human recombinant muscarinic receptor in CHO cells at concentration 10 uM; type: cell-based
T1 sequence (whole entry): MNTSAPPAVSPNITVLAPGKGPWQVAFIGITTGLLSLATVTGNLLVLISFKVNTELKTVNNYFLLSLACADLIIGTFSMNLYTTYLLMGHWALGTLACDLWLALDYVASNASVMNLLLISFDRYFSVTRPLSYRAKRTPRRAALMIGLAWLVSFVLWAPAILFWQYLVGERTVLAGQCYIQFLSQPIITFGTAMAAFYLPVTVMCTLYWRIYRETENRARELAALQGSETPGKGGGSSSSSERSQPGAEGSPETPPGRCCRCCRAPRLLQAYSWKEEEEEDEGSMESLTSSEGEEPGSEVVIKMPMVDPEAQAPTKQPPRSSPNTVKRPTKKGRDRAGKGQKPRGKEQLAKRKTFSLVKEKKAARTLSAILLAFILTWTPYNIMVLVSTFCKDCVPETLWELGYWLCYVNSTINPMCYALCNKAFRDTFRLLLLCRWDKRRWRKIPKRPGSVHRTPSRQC

[2] = target: T2, Muscarinic acetylcholine receptor M2 (Homo sapiens) (UniProt P08172); assay: Ability to displace [3H]N-methylscopolamine binding to M2 human recombinant muscarinic receptor in CHO cells at concentration 1 uM; type: cell-based
T2 sequence (whole entry): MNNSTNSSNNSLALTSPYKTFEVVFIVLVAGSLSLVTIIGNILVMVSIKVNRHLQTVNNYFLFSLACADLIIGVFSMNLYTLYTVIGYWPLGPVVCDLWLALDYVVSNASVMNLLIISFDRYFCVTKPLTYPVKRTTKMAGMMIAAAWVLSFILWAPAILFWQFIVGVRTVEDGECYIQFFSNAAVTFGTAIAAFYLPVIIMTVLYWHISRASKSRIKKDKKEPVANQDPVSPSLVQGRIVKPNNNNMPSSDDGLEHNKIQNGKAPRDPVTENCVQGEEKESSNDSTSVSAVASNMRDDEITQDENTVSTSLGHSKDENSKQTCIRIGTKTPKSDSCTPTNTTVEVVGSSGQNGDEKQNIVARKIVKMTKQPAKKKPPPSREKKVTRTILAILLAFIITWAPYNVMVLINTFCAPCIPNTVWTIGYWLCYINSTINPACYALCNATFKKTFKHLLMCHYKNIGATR

[3] = target: T2, Muscarinic acetylcholine receptor M2 (Homo sapiens); assay: Ability to displace [3H]N-methylscopolamine binding to M2 human recombinant muscarinic receptor in CHO cells at concentration 10 uM; type: cell-based
[4] = target: Muscarinic acetylcholine receptor M3 (Homo sapiens) (UniProt P20309); assay: Ability to displace [3H]N-methylscopolamine binding to M3 human recombinant muscarinic receptor in CHO cells at concentration 10 uM; type: cell-based
[5] = target: T1, Muscarinic acetylcholine receptor M1 (Homo sapiens); assay: Ability to displace [3H]N-methylscopolamine binding to M1 human recombinant muscarinic receptor in CHO cells at concentration 1 uM; type: cell-based
[6] = target: T3, Neuronal acetylcholine receptor (Rattus norvegicus) (UniProt P04757+P09483+P12389+P12390+P12392+P43144+Q9JLB5+P12391+P43143+P20420+Q05941); assay: Ability to displace [3H]cytisine binding to nicotinic receptor in synaptic membrane fractions from rat cerebral cortices at a concentration of 10 uM.; type: cell membranes
[7] = target: Muscarinic acetylcholine receptor M3 (Homo sapiens) (UniProt P20309); assay: Ability to displace [3H]N-methylscopolamine binding to M3 human recombinant muscarinic receptor in CHO cells at concentration 1 uM; type: cell-based
[8] = target: T4, Muscarinic acetylcholine receptor M1 (Homo sapiens, UniProt P11229); assay: The compound was tested for its binding affinity against M1 human recombinant muscarinic receptor in CHO cells.; type: cell-based
T4 sequence (P11229 whole entry): T1 sequence (whole entry)

[9] = target: T3, Neuronal acetylcholine receptor (Rattus norvegicus); assay: Ability to displace [3H]cytisine binding to Nicotinic acetylcholine receptor in synaptic membrane fractions from rat cerebral cortices at a concentration of 10 uM.; type: cell membranes

Chain of Muscarinic acetylcholine receptor M3 (Homo sapiens) (P20309 whole entry, looked up): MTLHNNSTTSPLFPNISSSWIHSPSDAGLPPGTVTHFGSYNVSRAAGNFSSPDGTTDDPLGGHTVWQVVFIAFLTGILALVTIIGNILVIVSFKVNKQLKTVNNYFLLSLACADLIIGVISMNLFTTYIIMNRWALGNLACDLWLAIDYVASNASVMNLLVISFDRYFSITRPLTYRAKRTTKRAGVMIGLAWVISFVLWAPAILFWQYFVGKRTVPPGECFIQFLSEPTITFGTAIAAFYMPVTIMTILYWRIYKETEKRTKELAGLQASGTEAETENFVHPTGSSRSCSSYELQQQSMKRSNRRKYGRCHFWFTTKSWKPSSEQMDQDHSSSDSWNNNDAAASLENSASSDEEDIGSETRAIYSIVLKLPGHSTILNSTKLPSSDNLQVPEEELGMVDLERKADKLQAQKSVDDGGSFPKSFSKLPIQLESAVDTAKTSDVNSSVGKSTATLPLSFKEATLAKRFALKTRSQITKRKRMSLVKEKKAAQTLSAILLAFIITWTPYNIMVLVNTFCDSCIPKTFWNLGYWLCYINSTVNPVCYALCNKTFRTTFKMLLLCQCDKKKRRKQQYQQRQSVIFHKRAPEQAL

Structure (SMILES)	inhibition [1]	inhibition [2]	inhibition [3]	inhibition [4]	inhibition [5]	inhibition [6]	inhibition [7]	IC50 [8]	inhibition [9]
Oc1ccc(-c2cc(/C=C3/CN4CCC3C4)on2)cc1O (stereo unspecified)	16%	6%	9%	0%	0%	64%	0%		
C(=C1\CN2CCC1CC2)/c1cc(-c2ccccc2)no1	51%	0%	38%	48%	7%	48%	12%		
Oc1ccc(-c2cc(/C=C3\CN4CCC3CC4)on2)cc1	2%	0%	7%	0%	0%	72%	0%		
COc1ccc(COc2ccc(-c3cc(/C=C4\CN5CCC4C5)on3)cc2OCc2ccc(OC)cc2)cc1 (stereo unspecified)	100%	77%	95%	98%	87%	0%	88%	114 nM	
Nc1ccc(-c2cc(/C=C3\CN4CCC3CC4)on2)cc1	4%	0%	5%	0%	0%		0%		77%
COc1ccc(COc2ccc(-c3cc(/C=C4/CN5CCC4C5)on3)cc2)cc1 (stereo unspecified)	66%				39%	0%			
Oc1ccc(-c2cc(/C=C3/CN4CCC3C4)on2)cc1 (stereo unspecified)	26%	6%	3%	11%	0%	81%	0%		
CC(C)(C)OC(=O)Nc1ccc(-c2cc(/C=C3/CN4CCC3CC4)on2)cc1	95%	16%	67%	87%	57%	43%	31%	806 nM	
COc1ccc(-c2cc(/C=C3\CN4CCC3C4)on2)cc1 (stereo unspecified)	34%	7%	24%	2%	0%		0%		55%
Fc1ccc(-c2cc(/C=C3/CN4CCC3CC4)on2)cc1	6%				0%	19%			
Cc1ccc(-c2cc(/C=C3\CN4CCC3CC4)on2)cc1	0%	0%	13%	0%	0%	26%	0%		
COc1ccc(COc2ccc(-c3cc(/C=C4\CN5CCC4C5)on3)cc2)cc1 (stereo unspecified)	84%				69%				0%
COc1ccc(-c2cc(/C=C3\CN4CCC3CC4)on2)cc1OC	22%	14%	22%	7%	3%	58%	0%		
COc1ccc(-c2cc(/C=C3/CN4CCC3C4)on2)cc1 (stereo unspecified)	45%	15%	19%	0%	8%		0%		58%
Fc1ccc(-c2cc(/C=C3\CN4CCC3CC4)on2)cc1	0%	13%	22%	10%	0%	19%	0%		
Oc1ccc(-c2cc(/C=C3\CN4CCC3C4)on2)cc1 (stereo unspecified)	0%	1%	10%	20%	0%	36%	10%		

Structure (SMILES)	inhibition [1]	inhibition [2]	inhibition [3]	inhibition [4]	inhibition [5]	inhibition [6]	inhibition [7]	IC50 [8]	inhibition [9]
COc1ccc(COc2ccc(-c3cc(/C=C4/CN5CCC4CC5)on3)cc2)cc1	93%	26%	83%	52%	89%	0%	22%	250 nM	
COc1ccc(COc2ccc(-c3cc(/C=C4/CN5CCC4CC5)on3)cc2OCc2ccc(OC)cc2)cc1	100%	27%	89%	94%	85%	0%	44%	247 nM	
CC(C)(C)OC(=O)Nc1ccc(-c2cc(/C=C3\CN4CCC3C4)on2)cc1 (stereo unspecified)	53%	10%	53%	53%	3%	75%	0%		
COc1ccc(COc2ccc(-c3cc(/C=C4\CN5CCC4CC5)on3)cc2OCc2ccc(OC)cc2)cc1	100%	49%	92%	98%	85%	0%	76%	260 nM	
Oc1ccc(-c2cc(/C=C3\CN4CCC3C4)on2)cc1O (stereo unspecified)	0%	0%	0%	0%	0%		0%		
COc1ccc(-c2cc(/C=C3/CN4CCC3CC4)on2)cc1	79%	16%	63%	63%	23%	68%	14%		
Cc1ccc(-c2cc(/C=C3/CN4CCC3CC4)on2)cc1	7%	2%	14%	15%	7%	70%	3%		
C(=C1/CN2CCC1CC2)/c1cc(-c2ccccc2)no1	13%	3%	26%	17%	0%		5%		
COc1ccc(-c2cc(/C=C3/CN4CCC3CC4)on2)cc1OC	81%	30%	71%	46%	28%	90%	6%		
CC(C)(C)OC(=O)Nc1ccc(-c2cc(/C=C3\CN4CCC3CC4)on2)cc1	59%	14%	36%	41%	12%	64%	5%	> 10 nM	
Nc1ccc(-c2cc(/C=C3/CN4CCC3C4)on2)cc1 (stereo unspecified)	44%	1%	4%	10%	7%	49%	0%		
COc1ccc(COc2ccc(-c3cc(/C=C4/CN5CCC4C5)on3)cc2OCc2ccc(OC)cc2)cc1 (stereo unspecified)	91%	24%	78%	82%	39%	0%	9%	1230 nM	
COc1ccc(COc2ccc(-c3cc(/C=C4\CN5CCC4CC5)on3)cc2)cc1	64%	55%	46%	37%	77%	0%	31%	809 nM	
CC(C)(C)OC(=O)Nc1ccc(-c2cc(/C=C3/CN4CCC3C4)on2)cc1 (stereo unspecified)	58%	3%	23%	35%	0%	74%	26%		
COc1ccc(-c2cc(/C=C3\CN4CCC3CC4)on2)cc1	21%	10%	19%	18%	0%	25%	3%		
